Test results: US20260097106A1, “AVIRULENT LIVE BACTERIAL VACCINES CURED OF PLASMIDS CONTAINING ANTIMICROBIAL RESISTANCE GENES” (Drs. Koehnk & Feldman, LLP, priority 2022, published 2026)

Assays:
Assay type in all cases: cell-based, E. coli
[1] = system: MS060520HM-PCISRAF18 cells; assay: Tetracycline HCl serial dilution in TSB media, turbidity
Experimental: Further evaluation of tetracycline sensitivity of cured MS060520HM-PCISRAF 18 cells was performed as follows: inoculating 10 ml of TSB media with MS060520HM-PCISRAF18 cells, incubating at 37° C. for 22 hours on orbital shaker at 150 rpm, preparing 1:1 serial dilutions of 5 ml tetracycline HCL in TSB media (from stock of 640 mg tetracycline HCl in 5 ml ultrapure water), inoculating the serial dilutions with 10 ul of the fermentate.

MS060520HM-PCISRAF18 = assay: Growth on blood agar containing 16 μg/ml tetracycline HCl; settings: 18 hours at 37° C.
Experimental: (§1) Comparison of tetracycline resistance between Edema Vac F18 cells cured of plasmids that contain AMR genes (MS060520HM-PCISRAF18) and Entero Vac K88 cells cured of plasmids that contain AMR genes (MS-K88-030321HM-PC2BSRAK88) was performed as follows: preparing subcultures of MS060520HM-PCISRAF18 and MS-K88-030321HM-PC2BSRAK88 on blood agar containing 16 μg/ml tetracycline HCl, incubating for 18 hours at 37° C., and observing haemolytic growth.

[2] = system: MS-K88-030321HM-PC2BSRAK88; assay: as above; settings: 18 hours at 37° C.
Experimental: as §1

[3] = system: MS112101HM-SR (Edema Vac F18 cells cured of plasmids that contain AMR genes); assay: AMR disc testing on Mueller Hinton agar plates
Experimental: (§2) AMR testing was performed comparing MS112101HM—SR, MS112101HM-AMR5, and MS112101HM-competent cells cultured on Mueller Hinton agar plates using Sulfatrim (SXT), Tetracycline (TE 30), Neomycin (NE 30), Sulfathiazine (ST 0.25), and Gentamicin (GM 10) discs.

[4] = system: MS112101HM-AMR5 (Edema Vac F18 transformed with AMR5 plasmid); assay: AMR disc testing on Mueller Hinton agar plates; settings: antibiotic disc, Mueller Hinton plates
Experimental: as §2

[5] = system: MS112101HM-competent (competent Edema Vac F18 cells); assay: AMR disc testing on Mueller Hinton agar plates; settings: antibiotic disc
Experimental: as §2

[6] = system: ECMS091703HM-SR (Entero Vac K88 cells cured of plasmids that contain AMR genes); assay: AMR disc testing on Mueller Hinton agar plates
Experimental: (§3) AMR testing was performed comparing ECMS091703HM-SR and ECMS091703HM-competent cells cultured on Mueller Hinton agar plates using Neomycin (NE 30) and Sulfathiazine (ST 0.25) discs. A master plate of ECMS091703HM-SR was produced as follows: subculturing a colony of ECMS091703HM-SR from LB agar containing 5% sucrose on new LB agar containing 5% sucrose, incubating overnight at 37° C., and storing sealed at 2-8° C.

[7] = system: ECMS091703HM-competent (competent Entero Vac K88 cells); assay: AMR disc testing on Mueller Hinton agar plates; settings: antibiotic disc
Experimental: as §3

## CN(C)[C@@H]1C(O)=C(C(N)=O)C(=O)[C@@]2(O)C(O)=C3C(=O)c4c(O)cccc4[C@@](C)(O)[C@H]3C[C@@H]12.Cl [Tet HCl, Tetracycline HCL]
[1]; Tet HCl 2 μg/ml in TSB media
  Turbidity 8 hours post inoculation: Pos
  Turbidity 24 hours post inoculation: Pos
[1]; Tet HCl 4 μg/ml in TSB media
  Turbidity 8 hours post inoculation: Pos
  Turbidity 24 hours post inoculation: Pos
[1]; Tet HCl 8 μg/ml in TSB media
  Turbidity 8 hours post inoculation: Pos
  Turbidity 24 hours post inoculation: Pos
[1]; Tet HCl 16 μg/ml in TSB media
  Turbidity 8 hours post inoculation: Pos
  Turbidity 24 hours post inoculation: Pos
[1]; Tet HCl 32 μg/ml in TSB media
  Turbidity 8 hours post inoculation: Pos
  Turbidity 24 hours post inoculation: Pos
[1]; Tet HCl 64 μg/ml in TSB media
  Turbidity 8 hours post inoculation: Slight
  Turbidity 24 hours post inoculation: Pos
[1]; Tet HCl 128 μg/ml in TSB media
  Turbidity 8 hours post inoculation: Neg
  Turbidity 24 hours post inoculation: Pos
[1]; tetracycline HCl in TSB media
  Concentration with inhibited growth: 128 µg/mL
MS060520HM-PCISRAF18
  Tetracycline resistance (haemolytic growth): confirmed tetracycline resistance
[2]
  Tetracycline resistance (haemolytic growth): did not display any tetracycline resistance

## Sulfathiazine [ST 0.25]
[3]; antibiotic disc, Mueller Hinton plates, MS112101HM-SR
  Ring measurement (radius, mm): 15 mm
[3]; disc test, MS112101HM-SR compared with MS112101HM-competent
  Resistance of the strain to the antibiotic (in words): less resistance
[4]
  Ring measurement (radius, mm): 18 mm
[5]
  Ring measurement (radius, mm): 0 mm
[6]; antibiotic disc, Mueller Hinton plates, ECMS091703HM-SR
  Ring measurement (radius, mm): 20 mm
[6]; disc test, ECMS091703HM-SR compared with ECMS091703HM-competent
  Resistance of the strain to the antibiotic (in words): less resistance
[7]
  Ring measurement (radius, mm): 13 mm
